{
  "source": "patent US12685312B2",
  "about": "“Sulfonamide apyrase inhibitors” (Texas Crop Science, Inc., priority 2022, dated 2026)",
  "data": [
    {"system": "apyrase", "test": "Screen for apyrase inhibitors (Method 1, in vitro phosphate-release absorbance assay)", "assay_type": "biochemical", "settings": "inhibitor conc at 1 mM stock, 1 hr room temperature, absorbance 630 nm; rounded average of two assay results", "method_in_brief": "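Phosphate-release colorimetric assay (Windsor method) in 60 mM Hepes, 3 mM MgCl2, 3 mM CaCl2, 3 mM ATP, pH 6.5, with compound or DMSO control added. Released phosphate developed with ammonium molybdate and ascorbic acid/TCA, then stopped with citrate/acetic acid.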", "units": {"% Inhibition of Apyrase": "%"}, "values": [
      {"smiles": "Cc1cc(C(=O)Nc2cccc(S(=O)(=O)Nc3ccccc3F)c2)no1", "note": "[I-731, N-(3-(N-(2-fluorophenyl)sulfamoyl)phenyl)-5-methylisoxazole-3-carboxamide]", "% Inhibition of Apyrase": 55},
      {"smiles": "CN(c1ccccc1)S(=O)(=O)c1cccc(NC(=O)c2cnc3n(c2=O)CCS3)c1", "note": "[I-732, N-(3-(N-methyl-N-phenylsulfamoyl)phenyl)-5-oxo-2,3-dihydro-5H-thiazolo[3,2-a]pyrimidine-6-carboxamide]", "% Inhibition of Apyrase": 55},
      {"smiles": "COc1ncccc1C(=O)Nc1cccc(S(=O)(=O)Nc2ccc(Cl)cc2)c1", "note": "[I-733, N-(3-(N-(4-chlorophenyl)sulfamoyl)phenyl)-2-methoxynicotinamide]", "% Inhibition of Apyrase": 54},
      {"smiles": "O=C(Nc1cccc(S(=O)(=O)Nc2ccccc2Cl)c1)c1ccc2ccccc2n1", "note": "[I-734, N-(3-(N-(2-chlorophenyl)sulfamoyl)phenyl)quinoline-2-carboxamide]", "% Inhibition of Apyrase": 54},
      {"smiles": "COc1ccccc1NS(=O)(=O)c1cccc(NC(=O)c2ccc(=O)n(Cc3ccccc3)n2)c1", "note": "[I-735, 1-benzyl-N-(3-(N-(2-methoxyphenyl)sulfamoyl)phenyl)-6-oxo-1,6-dihydropyridazine-3-carboxamide]", "% Inhibition of Apyrase": 53},
      {"smiles": "COc1ccc(NS(=O)(=O)c2cccc(NC(=O)c3n[nH]c(=O)c4ccccc34)c2)cc1", "note": "[I-736, N-(3-(N-(4-methoxyphenyl)sulfamoyl)phenyl)-4-oxo-3,4-dihydrophthalazine-1-carboxamide]", "% Inhibition of Apyrase": 53},
      {"smiles": "O=C(Nc1cccc(S(=O)(=O)Nc2ccc(Cl)cc2)c1)c1ccc(=O)n(Cc2ccccc2)n1", "note": "[I-737, 1-benzyl-N-(3-(N-(4-chlorophenyl)sulfamoyl)phenyl)-6-oxo-1,6-dihydropyridazine-3-carboxamide]", "% Inhibition of Apyrase": 53},
      {"smiles": "Cc1ccc(Br)c(NS(=O)(=O)c2cccc(NC(=O)c3ccc(C)nc3)c2)c1", "note": "[I-738, N-(3-(N-(2-bromo-5-methylphenyl)sulfamoyl)phenyl)-6-methylnicotinamide]", "% Inhibition of Apyrase": 52},
      {"smiles": "CN(c1ccccc1)S(=O)(=O)c1cccc(NC(=O)c2cc(Cl)nc3ccccc23)c1", "note": "[I-739, 2-chloro-N-(3-(N-methyl-N-phenylsulfamoyl)phenyl)quinoline-4-carboxamide]", "% Inhibition of Apyrase": 52},
      {"smiles": "Cc1ccc(C(=O)Nc2cccc(S(=O)(=O)Nc3cccc(C(F)(F)F)c3)c2)cn1", "note": "[I-740, 6-methyl-N-(3-(N-(3-(trifluoromethyl)phenyl)sulfamoyl)phenyl)nico tinamide]", "% Inhibition of Apyrase": 51},
      {"smiles": "O=C(Nc1cccc(S(=O)(=O)Nc2cccc(Cl)c2)c1)c1ccccn1", "note": "[I-741, N-(3-(N-(3-chlorophenyl)sulfamoyl)phenyl)picolinamide]", "% Inhibition of Apyrase": 50},
      {"smiles": "COc1ccc(NS(=O)(=O)c2cccc(NC(=O)c3cc4c(s3)CCC4)c2)cc1", "note": "[I-742, N-(3-(N-(4-methoxyphenyl)sulfamoyl)phenyl)-5,6-dihydro-4H-cyclopenta[b]thiophene-2-carboxamide]", "% Inhibition of Apyrase": 50},
      {"smiles": "CSc1ncccc1C(=O)Nc1cccc(S(=O)(=O)N(C)c2ccccc2)c1", "note": "[I-743, N-(3-(N-methyl-N-phenylsulfamoyl)phenyl)-2-(methylthio)nicotinamide]", "% Inhibition of Apyrase": 49},
      {"smiles": "Cc1cnc(C(=O)Nc2cccc(S(=O)(=O)Nc3cccc(Cl)c3)c2)cn1", "note": "[I-744, N-(3-(N-(3-chlorophenyl)sulfamoyl)phenyl)-5-methylpyrazine-2-carboxamide]", "% Inhibition of Apyrase": 49},
      {"smiles": "O=C(Nc1cccc(S(=O)(=O)Nc2ccccc2Cl)c1)c1ccccn1", "note": "[I-745, N-(3-(N-(2-chlorophenyl)sulfamoyl)phenyl)picolinamide]", "% Inhibition of Apyrase": 46},
      {"smiles": "O=C(Nc1cccc(S(=O)(=O)Nc2ccccc2Cl)c1)c1ccc(Cl)nc1", "note": "[I-746, 6-chloro-N-(3-(N-(2-chlorophenyl)sulfamoyl)phenyl)nicotinamide]", "% Inhibition of Apyrase": 45},
      {"smiles": "Cc1occc1C(=O)Nc1cccc(S(=O)(=O)Nc2cccc(C(F)(F)F)c2)c1", "note": "[I-747, 2-methyl-N-(3-(N-(3-(trifluoromethyl)phenyl)sulfamoyl)phenyl) furan-3-carboxamide]", "% Inhibition of Apyrase": 44}
    ]}
  ]
}
